Where a SMILES comes first, the peptide text is derived from it.
Legend:
[1] = design: method as in PMID 25682874; details: cited from earlier work
in vitro = in vitro ADME; details: mouse, plasma
Description: Figure 1S. Plasma ex vivo stability profile of the ML and C23 inhibitor determined by Ultra Performance Liquid Chromatography (UPLC).

LNCaP cells = details: 72 h
Method: (§1) The inhibitory constant (Ki) was calculated from the IC50 values using the equation of Cheng and Prusoff. Data are the mean ± SD of three independent experiments. The concentration of peptides that inhibited cell growth by 50% (IC50) was determined by MTT cell survival assays in DU145 and LNCaP cell lines. Data represent the mean ± SEM of three independent experiments. Acute cytotoxicity of the compounds at the selected concentrations was measured by lactate dehydrogenase (LDH) assay after 4 h of incubation with DU145 cells. […] Previously published compound: [a] ref.[12]. ML inhibitor was used as control and was re-assayed in presented experiments.
(§2) DU145 and LNCaP cells were maintained at low passages (below 30) and cultured in RPMI 1640 (Wisent Bioproducts, QC) with 5 and 10% fetal bovine serum, respectively. For MTT proliferation assays 3500 LNCaP (on poly-L-lysine coated wells) or 1500 DU145 cells were seeded in 96-well plates, and after 24 h, the cells were treated with various concentrations of inhibitors (from 300 to 1 μM). Next, the cells were incubated for 72 h with peptides prior to addition of MTT reagent (Sigma–Aldrich, Canada) at a final concentration of 1 mg/mL. Formazan salt was solubilized with 50 μL DMSO and the metabolic activity was normalized relatively to vehicle-treated cells (sterile bi-distilled water). IC50 values were determined using Prism 5.0 (GraphPad Software, USA), as previously described. For LDH assay, the LDH Cytotoxicity Detection Kit (Promega, USA) was used to quantify the release of lactate dehydrogenase following membrane disruption. As described in our previous work[15], DU145 cells were seeded at a density of 3000 cells/well and allowed to incubate for 24 h. Then, the media was subsequently replaced and cells were incubated with compounds at the selected concentration. Cells treated with 1% SDS were used as a control for maximal LDH release and further relative quantification.

DU145 cells [2] = details: 72 h
Method: as §1, §2

DU145 cells [3] = test: LDH release acute cytotoxicity assay; type: cell-based; details: for LDH release DU145: 4 h incubation, selected concentrations
Method: as §1, §2

recombinant human PACE4 = target: T1, recombinant human PACE4 (Homo sapiens, UniProt P29122); test: Enzyme kinetic inhibition of recombinant hPACE4; type: biochemical; details: calculated from IC50 by Cheng and Prusoff, mean ± SD of three experiments
T1 construct: made in house
T1 sequence (P29122 150-969): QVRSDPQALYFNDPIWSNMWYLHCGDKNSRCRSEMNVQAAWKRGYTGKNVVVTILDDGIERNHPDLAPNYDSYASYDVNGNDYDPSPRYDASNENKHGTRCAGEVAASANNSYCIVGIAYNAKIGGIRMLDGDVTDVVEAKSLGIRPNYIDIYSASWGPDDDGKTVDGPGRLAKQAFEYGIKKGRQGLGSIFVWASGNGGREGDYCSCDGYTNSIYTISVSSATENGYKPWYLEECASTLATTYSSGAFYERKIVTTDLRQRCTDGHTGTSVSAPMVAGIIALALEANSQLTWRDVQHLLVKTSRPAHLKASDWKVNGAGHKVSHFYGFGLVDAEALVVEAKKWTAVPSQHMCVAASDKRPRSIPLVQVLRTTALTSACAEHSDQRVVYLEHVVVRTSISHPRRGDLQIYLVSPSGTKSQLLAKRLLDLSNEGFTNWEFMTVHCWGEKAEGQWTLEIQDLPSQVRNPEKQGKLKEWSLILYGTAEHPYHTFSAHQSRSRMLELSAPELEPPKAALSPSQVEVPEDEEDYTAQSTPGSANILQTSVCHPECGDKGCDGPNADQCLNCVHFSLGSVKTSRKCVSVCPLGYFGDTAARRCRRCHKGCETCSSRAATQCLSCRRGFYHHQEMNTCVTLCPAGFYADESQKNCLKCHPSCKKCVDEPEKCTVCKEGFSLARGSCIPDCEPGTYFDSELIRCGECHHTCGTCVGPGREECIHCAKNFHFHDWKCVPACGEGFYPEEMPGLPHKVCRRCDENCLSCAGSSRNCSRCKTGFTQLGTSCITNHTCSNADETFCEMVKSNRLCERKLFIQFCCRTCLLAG
Method: as §1
Enzyme kinetic measurements were performed with recombinant hPACE4 as described previously. Enzyme and substrate concentrations used in the present study are presented in Supplementary Table S2.

[4] = target: T2, mouse serum albumin (MSA) (Mus musculus, UniProt P07724); test: MSA conjugation assay; type: binding; details: PBS pH 7.4, 37 °C; RP-HPLC and MALDI-TOF
T2 construct: purchased Equitech-Bio; Inc., USA
T2 sequence (P07724 25-608): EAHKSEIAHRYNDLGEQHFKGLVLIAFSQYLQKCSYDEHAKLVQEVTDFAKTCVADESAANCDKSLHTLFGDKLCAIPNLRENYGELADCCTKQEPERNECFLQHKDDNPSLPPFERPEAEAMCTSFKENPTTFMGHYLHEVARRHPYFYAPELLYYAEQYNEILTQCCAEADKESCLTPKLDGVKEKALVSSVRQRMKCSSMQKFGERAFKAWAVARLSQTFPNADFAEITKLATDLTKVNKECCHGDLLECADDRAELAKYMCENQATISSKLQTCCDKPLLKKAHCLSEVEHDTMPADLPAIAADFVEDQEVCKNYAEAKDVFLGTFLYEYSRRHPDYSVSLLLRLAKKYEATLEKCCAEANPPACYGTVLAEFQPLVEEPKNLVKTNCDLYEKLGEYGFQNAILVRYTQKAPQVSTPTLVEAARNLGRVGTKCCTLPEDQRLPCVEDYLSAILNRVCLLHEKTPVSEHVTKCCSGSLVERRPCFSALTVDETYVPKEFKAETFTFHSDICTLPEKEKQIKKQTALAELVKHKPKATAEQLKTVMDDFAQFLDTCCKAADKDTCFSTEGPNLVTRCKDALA
Description: RP-HPLC and MALDI-TOF analysis were used to confirm completion of the reaction.

human PSA (hPSA) = target: T3, human PSA (hPSA) (Homo sapiens, UniProt P07288); test: hPSA cleavage of prodrugs; type: biochemical; details: extended incubation time up to 24 h; RP-HPLC
T3 construct: enzymatically active hPSA extracted from seminal fluid (Millipore, USA); purchased Millipore, USA; host or cells: human seminal fluid
T3 sequence (P07288 25-261): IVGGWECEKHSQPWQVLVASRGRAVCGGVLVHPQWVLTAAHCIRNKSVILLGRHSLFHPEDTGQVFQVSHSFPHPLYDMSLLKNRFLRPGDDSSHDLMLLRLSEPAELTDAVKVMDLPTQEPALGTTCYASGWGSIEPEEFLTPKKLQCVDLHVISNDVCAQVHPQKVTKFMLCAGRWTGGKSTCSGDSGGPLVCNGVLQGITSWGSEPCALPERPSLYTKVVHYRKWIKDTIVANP
Method: To determine PSA cleavage efficiency, peptide (125 µM final concentration; approximately 20 µg) were incubated with a final concentration of 20 µg/mL of enzymatically active hPSA extracted from seminal fluid (Millipore, USA) in 50 mM Tris buffer pH 7.4. Samples were analyzed by RP-HPLC (using 35 µL of the reaction solution) by comparing the resulting cleavage product over a standard curve generated using a synthetic cleaved peptide (peptides 1–4). The number of nmol of a cleaved peptide produced over time was then used to calculate the specific activity in pmol product/min/100 pmol PSA to compare the different substrate peptide between each other.

[5] = 4 h incubation with DU145 cells at 100 μM

Q: With `CC(=O)N[C@H](CC(C)C)C(=O)N[C@@H](CC(C)C)C(=O)N[C@@H](CC(C)C)C(=O)N[C@@H](CC(C)C)C(=O)N[C@@H](CCCNC(=N)N)C(=O)N[C@H](C(=O)N[C@@H](CCCCN)C(=O)NCc1ccc(C(=N)N)cc1)C(C)C` [C23, Ac-[DLeu]LLLRVK-amidinobenzylamide] (HELM PEPTIDE1{[ac].[dL].L.L.L.R.V.K.[N=C(N)c1ccc(CN[*:1])cc1]}$$$$V2.0) as the compound, how does the “in vivo half-life (t1/2)” value [1] read?
A: 9 ± 3 min

Q: And the “time post-injection after which rapidly eliminated” value ([1]; radiolabeled version)?
A: 20 min

Q: What about the half-life (in vitro) of the same compound?
A: 104 ± 3.6 min

Q: With `CC(C)C[C@H](NC(=O)Cc1ccc(NC(=O)[C@H](CC(C)C)NC(=O)[C@@H](N)CO)cc1)C(=O)N[C@@H](CC(C)C)C(=O)N[C@@H](CC(C)C)C(=O)N[C@@H](CC(C)C)C(=O)N[C@@H](CCCNC(=N)N)C(=O)N[C@H](C(=O)N[C@@H](CCCCN)C(=O)N[C@@H](CCCNC(=N)N)C(N)=O)C(C)C` [Peptide 2] (HELM PEPTIDE1{S.L.[O=C(Cc1ccc(N[*:1])cc1)[*:2]].L.L.L.L.R.V.K.R.[am]}$$$$V2.0) as the compound, how does the IC50 (LNCaP cells) read?
A: 50 ± 10 µM

Q: What about the IC50 (DU145 cells [2]) of the same compound?
A: 19 ± 7 µM

Q: What about the “LDH release relative to the untreated cells” value (DU145 cells [3]; 4 h incubation with DU145 cells at the IC50 concentration) of the same compound?
A: < 5%

Q: What about the “LDH release DU145” value (DU145 cells [3]) of the same compound?
A: < 5%

Q: And the Ki (recombinant human PACE4)?
A: 68 ± 10 nM

Q: What does the source list for `CC(C)C[C@H](NC(=O)CCCNC(=O)[C@H](CC(C)C)NC(=O)[C@@H](N)CO)C(=O)N[C@@H](CC(C)C)C(=O)N[C@@H](CC(C)C)C(=O)N[C@@H](CC(C)C)C(=O)N[C@@H](CCCNC(=N)N)C(=O)N[C@H](C(=O)N[C@@H](CCCCN)C(=O)N[C@@H](CCCNC(=N)N)C(N)=O)C(C)C` [Peptide 3] (HELM PEPTIDE1{S.L.[O=C(CCCN[*:1])[*:2]].L.L.L.L.R.V.K.R.[am]}$$$$V2.0)?
A: LDH release relative to the untreated cells (DU145 cells [3]; [5]): < 5%; LDH release DU145 (DU145 cells [3]): < 5%; Ki (recombinant human PACE4): 56 ± 4 nM

Q: Which results are given for `CC(C)C[C@H](NC(=O)COCCOCCNC(=O)[C@H](CC(C)C)NC(=O)[C@@H](N)CO)C(=O)N[C@@H](CC(C)C)C(=O)N[C@@H](CC(C)C)C(=O)N[C@@H](CC(C)C)C(=O)N[C@@H](CCCNC(=N)N)C(=O)N[C@H](C(=O)N[C@@H](CCCCN)C(=O)N[C@@H](CCCNC(=N)N)C(N)=O)C(C)C` [Peptide 4] (HELM PEPTIDE1{S.L.[O=C(COCCOCCN[*:1])[*:2]].L.L.L.L.R.V.K.R.[am]}$$$$V2.0)?
A: LDH release relative to the untreated cells (DU145 cells [3]; [5]): < 5%; LDH release DU145 (DU145 cells [3]): < 5%; Ki (recombinant human PACE4): 62 ± 3 nM

Q: Which results are given for “Ac-LLLLRVKR-NH2 [ML, reference compound]”?
A: IC50 (LNCaP cells): 130 ± 10 µM; IC50 (DU145 cells [2]): 90 ± 2 µM; LDH release DU145 (DU145 cells [3]): < 5%; half-life (in vitro): 7.8 ± 2.3 min

Q: With “EMC-RSSYYSLLLLLRVKR-NH2 ({EMC}-RSSYYSLLLLLRVKR-NH2) [Ligand 1]” as the compound, how does the “time to full conjugation to MSA” value [4] read?
A: 1 h

Q: Which “time to full conjugation to MSA” value [4] does the source give for “EMC-RSSYYSL[4-Apaa]LLLLRVKR-NH2 [Ligand 2]” here?
A: 1 h

Q: Which “release of the ML derivative by hPSA” value (human PSA (hPSA)) does the source give for MSA-EMC-RSSYYSLLLLLRVKR-NH2 [prodrug 1] here?
A: no release product was detected

Reference: PMC6376031, “Enhanced anti-tumor activity of the Multi-Leu peptide PACE4 inhibitor transformed into an albumin-bound tumor-targeting prodrug” (Scientific Reports, 2019)
